Reference: PubChem BioAssay AID179 (DTP/NCI, 2004)
Values joined by “and” are separate entries in the source; they are usually repeats but may differ in a detail not shown here. Equal entries are not always repeated. Active and inactive are the calls of the source.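 The calls were made as follows: active = compounds giving half or more protection of infected cells from virus-caused growth loss, again on retest; inactive = the rest.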

Test system: CEM cells HIV-1 protection, formazan growth assay
Assay: NCI AIDS Antiviral Assay
Conditions: for IC50: measured here: growth of uninfected CEM cells
How it was run: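 Human CEM cells, uninfected and HIV-1-infected, exposed to five drug concentrations; growth measured by soluble formazan assay and scored as percent protection from infection, with protecting compounds retested.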

COc1nc(=O)cc(N)n1C1OC(CO)C(O)C1O (centres undefined)
EC50: > 912 µM | IC50: > 912 µM

CC(=O)C1CC2(c3ccccc3)C(=O)c3ccccc3N2O1 (centres undefined)
EC50: > 447 µM | IC50: 195 µM

C[n+]1c2ccccc2c(/C=N\NS(=O)(=O)c2ccc(Cl)cc2)c2ccccc21
outcome: inactive

N#CC1=C(N)n2c(s/c(=C\c3ccc(Cl)cc3)c2=O)=C(c2nc3ccccc3[nH]2)C1c1ccc(Cl)cc1 (centres undefined)
EC50: > 5.01 µM | IC50: > 5.01 µM

COc1ccc(-c2onc3ccc(Br)cc23)cc1
EC50: > 23.4 µM | IC50: > 23.4 µM

Cc1cc(C)c(OC(=O)Nc2cccc3ccccc23)c(-c2ccccc2)c1
EC50: > 200 µM | IC50: 19.5 µM

COC(C)(C)C1(O)CC[C@@H](C)CC1=O (some centres undefined)
EC50: > 100 µM | IC50: > 100 µM

O=C(/C=C\c1ccsc1)c1ccccc1
EC50: > 200 µM | IC50: 3.24 µM

C=C(C)CCOC(c1ccccc1)(c1ccccc1)c1ccccc1
EC50: > 21.9 µM | IC50: > 21.9 µM

O=C(O)C1=C(C(=O)O)C2c3ccccc3C1c1ccccc12
EC50: > 200 µM | IC50: > 200 µM

CC(=O)c1ccc2c3ccccc3c3cccc4sc1c2c43
EC50: > 22.4 µM | IC50: > 22.4 µM

NC(=O)CCS(=O)(=O)O
EC50: > 200 µM | IC50: > 200 µM

COc1ccc(N2C(=O)C3c4[nH]c5ccc(C)cc5c4C4CCC(c5ccccc5)CC4C3C2=O)cc1 (centres undefined)
outcome: inactive

COC1(CCO)CC=CCC1(CCO)OC (centres undefined)
EC50: > 200 µM | IC50: > 200 µM

COc1cc2nncc(SCc3ccc(Cl)cc3)c2cc1OC
EC50: > 77.6 µM | IC50: > 77.6 µM

CCOC(=O)/C(=C\c1ccc(N(C)C)cc1)C(C)=O
EC50: > 501 µM | IC50: 162 µM

COc1ccc(C2SC(N)=Nc3c2c(C)nn3C(=O)c2ccncc2)cc1OC (centres undefined)
EC50: 49 µM | IC50: 170 µM

Cc1nnc2c3c(-c4ccccc4)c(-c4ccccc4)oc3nc(N(C)C)n12
outcome: inactive

NCCCOc1ccc(-c2c3nc(cc4ccc([nH]4)c(-c4ccc(OCCCN)cc4)c4nc(cc5ccc2[nH]5)C=C4)C=C3)cc1
EC50: 2.4 µM | IC50: 3.31 µM

Cc1cn(C(CCO)CCO)c(=O)[nH]c1=O
EC50: > 200 µM | IC50: > 200 µM

CC(C)c1c(P(=O)(c2ccccc2)c2ccccc2)n(C)c2ccccc12
EC50: > 100 µM | IC50: 41.7 µM

O=C(NC(=O)c1c(F)cccc1F)Nc1ncc(Cl)cc1Cl
EC50: > 200 µM | IC50: > 200 µM

C=C1[C@@H](OC(C)=O)C[C@@H]2C[C@]3(C)C(OC(C)=O)CC(C)(C)[C@@H]3C12O (some centres undefined)
EC50: > 204 µM | IC50: > 204 µM

CCOC(=O)c1c2nc3ccccc3sc-2c(C(=O)OCC)c1C(=O)OCC
EC50: > 20 µM | IC50: 0.977 µM

CC(=O)C(C)C(=O)N1C(=O)N(C)C2(C)N(C)C(=O)NC12C (centres undefined)
EC50: > 200 µM | IC50: > 200 µM

SCCSCCCSCCS
EC50: > 22.9 µM | IC50: > 22.9 µM

Cc1cc(=O)[nH]c(CNC(=O)c2ccc3ccccc3c2)n1
EC50: > 123 µM | IC50: > 123 µM

COC(=O)C1=C(O)C(C(=O)OC)C2CC(=O)CC1C2(C)C (centres undefined)
EC50: > 200 µM | IC50: > 200 µM

O=C1Oc2ccccc2C1C/C(=N\Nc1ccccc1)c1ccccc1O (centres undefined)
EC50: > 93.3 µM | IC50: 79.4 µM

O=C1CC(=O)N(c2ccccc2)N1/C(=C/c1ccccc1)c1ccccc1
EC50: > 200 µM | IC50: 9.33 µM

O=C1c2c(O)ccc(O)c2C(=O)c2c(NCCNCCO)ccc(NCCNCCO)c21
EC50: > 0.708 µM | IC50: 0.00186 µM and 0.00251 µM

[CH3][Sn]([CH3])([Cl])[CH2]C(P(=O)(c1ccccc1)c1ccccc1)P(=O)(c1ccccc1)c1ccccc1
EC50: > 50.1 µM | IC50: 2.29 µM

CC1=CC(C)(c2c[nH]c3ccccc23)CC(C)(C)c2c1[nH]c1ccccc21 (centres undefined)
outcome: inactive

CCOC(=O)NC(=O)c1cn(CCN2CCNCC2)c(=O)[nH]c1=O
outcome: inactive

NNC(=S)N1CCN(C(=S)NN)CC1
EC50: > 200 µM | IC50: 15.1 µM

CC(=O)NC1C(=O)N([C@H](COCc2ccccc2)c2ccccc2)[C@@H]1COC(C)(C)C (some centres undefined)
EC50: > 295 µM | IC50: 186 µM

CC(=O)C(C)[P+](c1ccccc1)(c1ccccc1)c1ccccc1 (centres undefined)
EC50: > 200 µM | IC50: 39.8 µM

CC(O)(c1ccccc1)c1ccc2ccccc2n1 (centres undefined)
EC50: > 200 µM | IC50: 38 µM

Nc1ncnc2c1ncn2C1OC(CO)CC1F (centres undefined)
IC50: > 200 µM and 191 µM

C=C(C)CC1=C(OCC)C(OC)(OCC)C1=O (centres undefined)
EC50: > 200 µM | IC50: > 200 µM

CC(=O)N(C(C)=O)c1nc2c(c(=O)n(C)c(=O)n2C)n1C
EC50: > 200 µM | IC50: > 200 µM

COC(=O)C([C@H]1CC[C@H](OCc2ccccc2)[C@@]1(O)COCc1ccccc1)C(C)(O)CCc1ccccc1 (some centres undefined)
outcome: inactive

CC(C(=O)NCCNC(=O)CCC(=O)N(C)O)C(=O)NCCNC(=O)CCC(=O)N(C)O
EC50: > 200 µM | IC50: 151 µM

C=C1SC(=Nc2c(C)cccc2C)N(c2nc(Cl)nc(Cl)n2)C12CCCCC2
EC50: > 200 µM | IC50: 162 µM

Cc1cc[n+]2n1CC(O)C2 (centres undefined)
outcome: inactive

Cc1cn(C2CCC3(CO)CC23)c(=O)[nH]c1=O (centres undefined)
EC50: > 50.1 µM | IC50: > 50.1 µM
